Source: patent US6423720B1, “Pyrimidine compounds and methods for making and using the same” (Duquesne University of the Holy Ghost, priority 2001, dated 2002)
Marks after values point to notes of the source that are not given here.

Tests used:
[1] = target: T1, dihydrofolate reductase (DHFR) from rat liver (RL) (Rattus norvegicus, UniProt Q920D2); assay: Inhibition of dihydrofolate reductase from rat liver (RL DHFR); assay type: biochemical; conditions: for IC50: read-out: RL DHFR Inhibitory Concentration (IC50)
T1 construct: the IC50 value of the DHFR from rat liver (RL); from tissue; host or cells: rat liver
T1 sequence (Q920D2 1-187): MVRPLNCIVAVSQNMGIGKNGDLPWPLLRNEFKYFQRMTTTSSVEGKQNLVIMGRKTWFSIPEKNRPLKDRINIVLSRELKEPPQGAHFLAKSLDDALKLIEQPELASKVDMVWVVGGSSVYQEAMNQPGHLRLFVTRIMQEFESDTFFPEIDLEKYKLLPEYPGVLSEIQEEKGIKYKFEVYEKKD
Text: (§1) The following examples are intended to illustrate the invention, and should not be construed as limiting the invention in any way. Standard test procedures familiar to those skilled in the art were used in the examples, such as those procedures described by Gangjee, A., et al., in “5-Arylthio-substituted 2-amino-4-oxo-6-methyl pyrrolo[2,3-d]pyrimidine antifolates as thymidylate synthase inhibitors and antitumor agents”, J. Med. Chem., Vol. 38, pp. 4495-4502 (1995); “Effect of bridge region variation on antifolate and antitumor activity of classical 5-substituted 2,4-diamino furo [2,3-d]pyrimidines”, J. Med. Chem., Vol. 38, pp. 3798-3805 (1995); and “Novel 2 ,4-diamino-5-substituted-pyrrolo[2,3-d]pyrimidines As Classical and Non-Classical Antifolate Inhibitors of Dihydrofolate Reductases”, J. Med. Chem., Vol. 38, pp. 2158-2165 (Jun. 6, 1995) and references disclosed therein.
(§2) The compounds described in Table 1 were evaluated as inhibitors of dihydrofolate reductase (DHFR) from Toxoplasmosis gondii (Tx) and rat liver (RL). The evaluation of the compounds consisted of determining the IC50 values and selectivity ratios of each compound against Tx DHFR and RL DHFR. The IC50 value is the concentration of a compound required to inhibit the dihydrofolate reductase activity by 50 percent (%). […] The selectivity ratio is a measure of the selectivity of a compound for Tx DHFR and is expressed as the IC50 value of the DHFR from rat liver (RL) divided by the IC50 value of the Tx DHFR. For example, the selectivity ratio of a compound is calculated by the following formula: [formula]

[2] = target: T2, dihydrofolate reductase (DHFR) from Toxoplasmosis gondii (Tx) (Toxoplasma gondii, UniProt Q07422); assay: Inhibition of dihydrofolate reductase from Toxoplasmosis gondii (Tx DHFR); assay type: biochemical; conditions: for Selectivity Ratio: RL DHFR/Tx DHFR: IC50 RL DHFR divided by IC50 Tx DHFR; for IC50: Toxoplasma gondii DHFR, read-out: Tx DHFR Inhibitory Concentration (IC50)
T2 sequence (Q07422 1-610): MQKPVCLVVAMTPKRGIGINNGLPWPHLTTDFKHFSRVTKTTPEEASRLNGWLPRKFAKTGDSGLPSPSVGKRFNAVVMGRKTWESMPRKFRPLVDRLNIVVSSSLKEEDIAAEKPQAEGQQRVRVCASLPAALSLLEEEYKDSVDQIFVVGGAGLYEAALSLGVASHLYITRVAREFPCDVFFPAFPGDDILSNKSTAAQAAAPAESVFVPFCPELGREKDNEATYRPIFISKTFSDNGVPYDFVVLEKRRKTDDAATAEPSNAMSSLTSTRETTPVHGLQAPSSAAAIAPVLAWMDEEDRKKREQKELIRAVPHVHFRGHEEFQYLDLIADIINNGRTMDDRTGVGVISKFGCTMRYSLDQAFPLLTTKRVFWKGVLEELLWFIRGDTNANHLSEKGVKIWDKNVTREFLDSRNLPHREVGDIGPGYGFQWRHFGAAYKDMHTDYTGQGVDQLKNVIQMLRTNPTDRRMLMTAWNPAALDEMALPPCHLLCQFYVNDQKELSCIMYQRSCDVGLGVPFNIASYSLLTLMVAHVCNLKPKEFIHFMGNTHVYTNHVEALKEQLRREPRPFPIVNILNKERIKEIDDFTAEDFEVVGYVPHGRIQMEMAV
Text: as §1, §2

[3] = target: T3, DHFR from Pneumocystis carinii (PC) (Pneumocystis carinii, UniProt P16184); assay: Inhibition of DHFR from Pneumocystis carinii (Pc); assay type: biochemical
T3 sequence (P16184 1-206): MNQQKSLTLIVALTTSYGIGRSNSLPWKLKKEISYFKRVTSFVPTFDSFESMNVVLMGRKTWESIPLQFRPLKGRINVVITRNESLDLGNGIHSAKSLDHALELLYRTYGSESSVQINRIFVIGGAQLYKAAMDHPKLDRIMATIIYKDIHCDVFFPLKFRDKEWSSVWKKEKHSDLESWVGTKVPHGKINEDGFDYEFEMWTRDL

In the case of Nc1nc(N)c(Sc2cccc3ccccc23)c(=O)[nH]1 [Compound 165], the IC50 [1] is reported as 97.2 µM, the “Selectivity Ratio: RL DHFR/Tx DHFR” value [2] is reported as 198.4 and the IC50 [2] is reported as 490 nM.
With Nc1nc(N)c(Sc2ccc(Cl)cc2)c(=O)[nH]1 [Compound 167] the IC50 [1] was 19.8 µM, the “Selectivity Ratio: RL DHFR/Tx DHFR” value [2] was 90.0 and the IC50 [2] was 220 nM.
In the case of COc1ccc(OC)c(Sc2c(N)nc(N)[nH]c2=O)c1 [Compound 169], the IC50 [1] is reported as 28.5 µM, the “Selectivity Ratio: RL DHFR/Tx DHFR” value [2] is reported as 142.5 and the IC50 [2] is reported as 200 nM.
With Nc1nc(N)c(Sc2ccc(C(=O)O)cc2)c(=O)[nH]1 [Compound 170] the RL/Pc selectivity ratio ([3]; IC50 RL DHFR divided by IC50 Pc DHFR) was 1.4, the IC50 ([3]; Pneumocystis carinii DHFR) was 89.5 µM and the IC50 [1] was 122 µM. For the same compound, the “Selectivity Ratio: RL DHFR/Tx DHFR” value [2] was 2.3 and the IC50 [2] was 53800 nM.
For Nc1nc(N)c(Sc2ccccc2Cl)c(=O)[nH]1 [Compound 171], the IC50 [1] was 4.7 µM, the “Selectivity Ratio: RL DHFR/Tx DHFR” value [2] was 13.4 and the IC50 [2] was 350 nM.
In the case of Nc1nc(N)c(Sc2ccc3ccccc3c2)c(=O)[nH]1 [Compound 174], the IC50 [1] is reported as 30 µM, the “Selectivity Ratio: RL DHFR/Tx DHFR” value [2] is reported as 85.7 and the IC50 [2] is reported as 350 nM.
In the case of COc1cccc(Sc2c(N)nc(N)[nH]c2=O)c1 [Compound 175], the IC50 [1] is reported as 53.4 µM, the “Selectivity Ratio: RL DHFR/Tx DHFR” value [2] is reported as 92.1 and the IC50 [2] is reported as 580 nM.
For Nc1nc(N)c(Sc2c(Cl)cccc2Cl)c(=O)[nH]1 [Compound 176], the IC50 [1] was 17.5 µM, the “Selectivity Ratio: RL DHFR/Tx DHFR” value [2] was 10.3 and the IC50 [2] was 1700 nM.
For Nc1nc(N)c(Sc2ccc(Cl)cc2Cl)c(=O)[nH]1 [Compound 177], the IC50 [1] was 2.3 µM, the “Selectivity Ratio: RL DHFR/Tx DHFR” value [2] was 16.4 and the IC50 [2] was 140 nM.
In the case of Nc1nc(N)c(Sc2ccncc2)c(=O)[nH]1 [Compound 179], the IC50 [1] is reported as 101 µM, the “Selectivity Ratio: RL DHFR/Tx DHFR” value [2] is reported as 11.9 and the IC50 [2] is reported as 8500 nM.
For Nc1nc(N)c(SCc2ccc(Cl)cc2)c(=O)[nH]1 [Compound 180], the “RL DHFR inhibition at 60 μM” value ([1]; @ 60 μM) was 26% @ 60 μM, the “Selectivity Ratio: RL DHFR/Tx DHFR” value [2] was >3.16# and the IC50 [2] was 16600 nM.
For COc1ccc(Sc2c(N)nc(N)[nH]c2=O)cc1OC [Compound 181], the inhibition at 67 µM ([1]; @ 67 μM) was 19%, the “Selectivity Ratio: RL DHFR/Tx DHFR” value [2] was >35.2# and the IC50 [2] was 1900 nM.
For Nc1nc(N)c(Sc2cc(Cl)cc(Cl)c2)c(=O)[nH]1 [Compound 184], the IC50 [1] was 20.2 µM, the “Selectivity Ratio: RL DHFR/Tx DHFR” value [2] was 74.8 and the IC50 [2] was 270 nM.
In the case of Nc1nc(N)c(Sc2ccc([N+](=O)[O-])cc2)c(=O)[nH]1 [Compound 185, 2,4-diamino-6-oxo-5-(4′-nitrophenylthio)pyrimidine], the IC50 [1] is reported as 15 µM, the “Selectivity Ratio: RL DHFR/Tx DHFR” value [2] is reported as 55.6 and the IC50 [2] is reported as 270 nM. For the same compound, the melting point was > 300 °C (dec.).
With Nc1nc(N)c(SCc2ccccc2)c(=O)[nH]1 [Compound 187] the IC50 [1] was 40.7 µM, the “Selectivity Ratio: RL DHFR/Tx DHFR” value [2] was 7.7 and the IC50 [2] was 5300 nM.
In the case of Nc1nc(N)c(Sc2ccccn2)c(=O)[nH]1 [Compound 188], the IC50 [1] is reported as 117 µM, the “Selectivity Ratio: RL DHFR/Tx DHFR” value [2] is reported as 24.9 and the IC50 [2] is reported as 4700 nM.
With Nc1nc(N)c(SCc2ccc(Cl)c(Cl)c2)c(=O)[nH]1 [Compound 190] the IC50 [1] was 24.2 µM, the “Selectivity Ratio: RL DHFR/Tx DHFR” value [2] was 16.1 and the IC50 [2] was 1500 nM.
In the case of COc1cccc(CSc2c(N)nc(N)[nH]c2=O)c1 [Compound 191], the IC50 [1] is reported as 66.8 µM, the “Selectivity Ratio: RL DHFR/Tx DHFR” value [2] is reported as 10.1 and the IC50 [2] is reported as 6600 nM.
For Nc1nc(N)c(SCc2ccc(Cl)cc2Cl)c(=O)[nH]1 [Compound 193], the IC50 [1] was 7 µM, the “Selectivity Ratio: RL DHFR/Tx DHFR” value [2] was 10 and the IC50 [2] was 700 nM.
For Cc1ccc(CSc2c(N)nc(N)[nH]c2=O)cc1 [Compound 194], the IC50 [1] was 193 µM, the “Selectivity Ratio: RL DHFR/Tx DHFR” value [2] was 25.4 and the IC50 [2] was 7600 nM.
For Cc1cccc(CSc2c(N)nc(N)[nH]c2=O)c1 [Compound 196], the “RL DHFR inhibition at 90 μM” value ([1]; @ 90 μM) was 3% @ 90 μM, the “Selectivity Ratio: RL DHFR/Tx DHFR” value [2] was >7.18 # and the IC50 [2] was 11500 nM.
With Nc1nc(N)c(SCc2ccccc2Cl)c(=O)[nH]1 [Compound 197] the IC50 [1] was 8.2 µM, the “Selectivity Ratio: RL DHFR/Tx DHFR” value [2] was 3.7 and the IC50 [2] was 2200 nM.
In the case of COc1ccccc1Sc1c(N)nc(N)[nH]c1=O [Compound 198], the IC50 [1] is reported as 263 µM, the “Selectivity Ratio: RL DHFR/Tx DHFR” value [2] is reported as 45.3 and the IC50 [2] is reported as 5800 nM.
For Nc1nc(N)c(Sc2nc(-c3ccccc3)cs2)c(=O)[nH]1 [Compound 199], the IC50 [1] was 53 µM, the “Selectivity Ratio: RL DHFR/Tx DHFR” value [2] was 4.3 and the IC50 [2] was 12200 nM.
For Nc1nc(N)c(SCc2ccc(Br)cc2)c(=O)[nH]1 [Compound 202], the IC50 [1] was 46.7 µM, the “Selectivity Ratio: RL DHFR/Tx DHFR” value [2] was 24.6 and the IC50 [2] was 1900 nM.
